From patent US6511848B2, “Process for producing and multiplying lymphocytes” (Winfried Albert, priority 1996, dated 2003)

Key:
killer T cells = assay: Multiplication of killer T cells in serum-free DF medium; assay type: cell-based, human
Method: Mononuclear cells from peripheral blood (PBMNC) of human donors are isolated by means of gradient centrifugation (lymphocyte separation medium, BM), washed twice with phosphate-buffered saline solution and incubated at a density of 5-10×10^6 cells/ml DF medium according to Thiele and Lipsky (J. Immunol. 136 (1986) 1038-1048) with 250 μM leucyl-leucine-methyl ester (BM) for 20 minutes at room temperature. After washing with DF medium the cells are cultured at 37° C. in 8% CO2 atmosphere at a density of 1-2×10^6 per ml DF medium together with irradiated (2000 rad) HB654 cells or HB617 cells (stimulator cells; 2-5×10^5 per ml). On day 5-6 of the co-culture half to two thirds of the culture medium is renewed and irradiated stimulator cells (2-5×10^5 per ml) are added again. From day 8-10 after starting the co-culture, when all stimulator cells have been destroyed by the cytotoxic activity of the killer T cells, the killer T cells are used for the following examples. […]

[1] = test system: Mononuclear cells from peripheral blood (PBMNC); assay: Multiplication of NK and T lymphocytes from mononuclear cells of human blood in serum-free medium; assay type: cell-based; conditions: serum-free DF medium, single cytokine
From the text: Mononuclear cells from peripheral blood (PBMNC) of a human donor are isolated by means of gradient centrifugation (lymphocyte separation medium, Boehringer Mannheim GmbH, Germany (BM)), washed twice with phosphate-buffered saline solution and taken up in DF medium at a density of 1×10^6 cells/ml and cultured in three separate preparations which are denoted A, B and C. […] Half of the culture medium (+cytokine(s)) is renewed every second day and the cell count is adjusted to ca. 1×10^6 cells/ml during the first 7 days and subsequently to ca. […].

For `CC[C@@H]1/C=C(\C)C[C@H](C)C[C@H](OC)[C@H]2O[C@@](O)(C(=O)C(=O)N3CCCC[C@H]3C(=O)O[C@H](/C(C)=C/[C@@H]3CC[C@@H](O)[C@H](OC)C3)[C@H](C)[C@@H](O)CC1=O)[C@H](C)C[C@@H]2OC` [Ascomycin, reference compound], the “multiplication of killer T cells (in words)” value (killer T cells; additive alone, without growth factor) was “no multiplication”.

In the case of TGFβ1: rh TGFβ1 (BM), 4 ng/ml, the “growth behaviour of the cells (in words)” value [1] is reported as “do not multiply”.

“IL-15: Human recombinant IL-15 (R & D Systems), 15 ng/ml, lymphocyte growth factor” was tested, and the “doubling cycles after which proliferation stagnates” value (killer T cells; growth factor alone) was 3 doubling cycles.
